According to patent US11802133B2, “Heterocyclic compounds as monoacylglycerol lipase inhibitors” (Hoffmann-La Roche Inc., priority 2018, dated 2023):

Target: MAGL (Homo sapiens (Human), UniProt Q99685)
Experiment: 2-AG assay: MAGL inhibitory activity by hydrolysis of 2-arachidonoylglycerol to arachidonic acid (mass spectrometry)
Assay type: biochemical
Conditions: measured in 2-AG assay (footnote [b]); 8 μM 2-arachidonoylglycerol
Method: Alternatively, compounds were profiled for MAGL inhibitory activity by determining the enzymatic activity by following the hydrolysis of the natural substrate 2-arachidonoylglycerol resulting in arachidonic acid, which can be followed by mass spectrometry. This assay is hereinafter abbreviated “2-AG assay”.
A C18 SPE cartridge (G9205A) was used in an acetonitrile/water liquid setup. […] The activity of the compounds was calculated based on the ratio of intensities [arachidonic acid/d8-arachidonic acid].

Chain of MAGL (Q99685 whole entry, species assumed): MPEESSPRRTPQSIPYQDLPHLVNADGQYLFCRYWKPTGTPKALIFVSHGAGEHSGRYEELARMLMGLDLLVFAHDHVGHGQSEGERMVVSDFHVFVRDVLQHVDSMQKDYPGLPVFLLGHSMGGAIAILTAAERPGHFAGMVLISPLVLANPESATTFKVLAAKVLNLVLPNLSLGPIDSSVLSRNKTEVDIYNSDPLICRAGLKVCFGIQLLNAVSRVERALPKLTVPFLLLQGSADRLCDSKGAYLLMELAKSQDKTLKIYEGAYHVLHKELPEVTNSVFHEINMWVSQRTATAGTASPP

| IC50 [nM] | Compound |
| --- | --- |
| 455 | O=C1CO[C@H]2CCN(C(=O)N3CC(Oc4cc(Cl)cc(N5CC6(CCC6)C5)c4)C3)C[C@H]2N1 [Example 277, (+)-(4aR,8aS)-6-[3-[3-(2-Azaspiro[3.3]heptan-2-yl)-5-chloro-phenoxy]azetidine-1-carbonyl]-4,4a,5,7,8,8a-hexahydropyrido[4,3-b][1,4]oxazin-3-one] |
| 143 | O=C1CO[C@H]2CCN(C(=O)N3CC(COc4cc(C(F)(F)F)cc(F)n4)C3)C[C@H]2N1 [Example 222, (4aR,8aS)-6-[3-[[6-Fluoro-4-(trifluoromethyl)-2-pyridyl]oxymethyl]azetidine-1-carbonyl]-4,4a,5,7,8,8a-hexahydropyrido[4,3-b][1,4]oxazin-3-one] |
| 99 | O=C1CO[C@H]2CCN(C(=O)N3CCC(COc4ccccc4Cl)C3)C[C@H]2N1 (stereo partly drawn) [Example 91] |
| 61 | Cc1cc(OC[C@H]2CCN(C(=O)N3CC[C@@H]4OCC(=O)N[C@@H]4C3)C[C@H]2C)cnc1C(F)(F)F [Example 232] |
| 75 | O=C1CO[C@H]2CCN(C(=O)N3CC(COc4ccc(C(F)(F)F)c(F)n4)C3)C[C@H]2N1 [Example 223, (4aR,8aS)-6-[3-[[6-Fluoro-5-(trifluoromethyl)-2-pyridyl]oxymethyl]azetidine-1-carbonyl]-4,4a,5,7,8,8a-hexahydropyrido[4,3-b][1,4]oxazin-3-one] |
| 211 | O=C1CO[C@H]2CCN(C(=O)N3CC(Oc4cc(Cl)cc(N5CCCC5)c4)C3)C[C@H]2N1 [Example 278, (+)-(4aR,8aS)-6-[3-(3-Chloro-5-pyrrolidin-l-yl-phenoxy)azetidine-1-carbonyl]-4,4a,5,7,8,8a-hexahydropyrido[4,3-b][1,4]oxazin-3-one] |
| 8 | Cc1cc(C(F)(F)F)ccc1OC1CCN(C(=O)N2CC[C@@H]3OCC(=O)N[C@@H]3C2)CC1 [Example 122] |
| 10 | O=C1CO[C@H]2CCN(C(=O)N3CC(OCc4ccc(C(F)(F)F)c(Oc5ccc(F)cc5)n4)C3)C[C@H]2N1 [Example 243] |
| 5 | O=C1CO[C@H]2CCN(C(=O)N3CC(OCc4ccc(C(F)(F)F)cc4C(F)(F)F)C3)C[C@H]2N1 [Example 249] |
| 15 | O=C1CO[C@H]2CCN(C(=O)N3CC(OCC4(c5ccc(Cl)cc5Cl)CC4)C3)C[C@H]2N1 [Example 241] |
| 42 | O=C1CO[C@H]2CCN(C(=O)N3CC(Oc4ccc(C(F)(F)F)c(N5CC(F)(F)C5)c4)C3)C[C@H]2N1 [Example 267, (+)-(4aR,8aS)-6-[3-[3-(3,3-Difluoroazetidin-1-yl)-4-(trifluoromethyl)phenoxy]azetidine-1-carbonyl]-4,4a,5,7,8,8a-hexahydropyrido[4,3-b][l,4]oxazin-3-one] |
| 12 | O=C1CO[C@H]2CCN(C(=O)N3CC(OCc4cc(C(F)(F)F)cc(Oc5ccc(F)cc5)n4)C3)C[C@H]2N1 [Example 242] |
| 6 | Cc1ccc(/C=C/C2CN(C(=O)N3CC[C@@H]4OCC(=O)N[C@@H]4C3)C2)c(F)c1 [Example 287] |
| 28 | CC1(F)CN(c2cc(OC3CN(C(=O)N4CC[C@@H]5OCC(=O)N[C@@H]5C4)C3)ccc2C(F)(F)F)C1 [Example 268, (+)-(4aR,8aS)-6-[3-[3-(3-Fluoro-3-methyl-azetidin-1-yl)-4-(trifluoromethyl)phenoxy]azetidine-1-carbonyl]-4,4a,5,7,8,8a-hexahydropyrido[4,3-b][l,4]oxazin-3-one] |

More lines, now with the values behind:

| Compound | IC50 [nM] |
| --- | --- |
| Cc1ccc(COC2CN(C(=O)N3CC[C@@H]4OCC(=O)N[C@@H]4C3)C2)c(C)c1 [Example 291] | 28 |
| CC1CN(c2cccc(OC3CN(C(=O)N4CC[C@@H]5OCC(=O)N[C@@H]5C4)C3)c2Cl)C1 [Example 272, (+)-(4aR,8aS)-6-[3-[2-Chloro-3-(3-methylazetidin-1-yl)phenoxy]azetidine-1-carbonyl]-4,4a,5,7,8,8a-hexahydropyrido[4,3-b][l,4]oxazin-3-one] | 94 |
| O=C1CO[C@H]2CCN(C(=O)N3CCC(Oc4cc(C(F)(F)F)ccc4F)C3)C[C@H]2N1 (stereo partly drawn) [Example 286] | 128 |
| O=C1CO[C@H]2CCN(C(=O)N3CC(OCc4cc(Cl)ccc4Cl)C3)C[C@H]2N1 [Example 225] | 7 |
| O=C1CO[C@H]2CCN(C(=O)N3CCC(Oc4ccc(Cl)c(-n5cncn5)c4)CC3)C[C@H]2N1 [Example 207] | 50 |
| O=C1CO[C@H]2CCN(C(=O)N3CCC(Oc4ccc(C(F)(F)F)c(-n5cccn5)c4)CC3)C[C@H]2N1 [Example 209] | 74 |
| Cc1ccc(CCC2CN(C(=O)N3CC[C@@H]4OCC(=O)N[C@@H]4C3)C2)c(C(F)(F)F)c1 [Example 219] | 2 |
| O=C1CO[C@H]2CCN(C(=O)N3CC(OCc4ccc(Cl)cc4Cl)C3)C[C@H]2N1 [Example 87] | 6 |
| O=C1CO[C@H]2CCN(C(=O)N3CCC(Cc4nc5ccncc5o4)CC3)C[C@H]2N1 [Example 124] | 1040 |
| O=C1CO[C@H]2CCN(C(=O)N3CCC(OCc4ccc(C(F)(F)F)cc4F)(C(F)(F)F)C3)C[C@H]2N1 (stereo partly drawn) [Example 245] | 1700 |
| O=C1CO[C@H]2CCN(C(=O)N3CC(OCc4ccc(OC(F)(F)F)c(F)c4)C3)C[C@H]2N1 [Example 288] | 53 |
| O=C1CO[C@H]2CCN(C(=O)N3CC(Oc4ccc(Cl)c(C(F)(F)F)c4)C3)C[C@H]2N1 [Example 204] | 100 |
| O=C1CO[C@H]2CCN(C(=O)N3CCC(Oc4ccc(C(F)(F)F)c(Cl)c4)CC3)C[C@H]2N1 [Example 255] | 10 |
| O=C1CO[C@H]2CCN(C(=O)N3CCC(Oc4ccc(C(F)(F)F)c(N5CCOCC5)c4)CC3)C[C@H]2N1 [Example 206] | 23 |
| Cc1cc(OC(F)(F)F)ccc1COC1CN(C(=O)N2CC[C@@H]3OCC(=O)N[C@@H]3C2)C1C (stereo partly drawn) [Example 252] | 5 |
| O=C1CO[C@H]2CCN(C(=O)N3CC(Oc4ccc(C(F)(F)F)c(N5CC6(C5)CC(F)(F)C6)c4)C3)C[C@H]2N1 [Example 269, (+)-(4aR,8aS)-6-[3-[3-(6,6-Difluoro-2-azaspiro[3.3]heptan-2-yl)-4-(trifluoromethyl)phenoxy]azetidine-1-carbonyl]-4,4a,5,7,8,8a-hexahydropyrido[4,3-b][l,4]oxazin-3-one] | 24 |
| O=C1CO[C@H]2CCN(C(=O)N3CC(OCc4cc(C(F)(F)F)c(C(F)(F)F)cn4)C3)C[C@H]2N1 [Example 234] | 2 |
| Cc1ccc(COC2CN(C(=O)N3CC[C@@H]4OCC(=O)N[C@@H]4C3)C2)cc1C(F)(F)F [Example 294] | 3000 |
| O=C1CO[C@H]2CCN(C(=O)N3CC(CC(F)(F)c4ccc(C(F)(F)F)cc4)C3)C[C@H]2N1 [Example 281] | 35 |
| O=C1CO[C@H]2CCN(C(=O)N3CCC(Cc4ccc(C(F)(F)F)cc4F)CC3)C[C@H]2N1 [Example 92] | 14 |
| O=C1CO[C@H]2CCN(C(=O)N3CCC(Oc4ccc(Cl)c(-n5cccn5)c4)CC3)C[C@H]2N1 [Example 205] | 86 |
| COc1cccc(C(F)(F)F)c1CCC1CN(C(=O)N2CC[C@@H]3OCC(=O)N[C@@H]3C2)C1 [Example 218] | 3 |
